# Assay results from patent US6461997B1, “Triazole sulfones having herbicidal activity” (Monsanto Technology LLC, priority 1999, dated 2002).
# Experiments:
# AMARE (redroot pigweed) = assay: Pre-plant incorporated (PPI) herbicidal activity, warm season; type: in vivo, Amaranthus retroflexus; conditions: PPI application
# Method: (§1) In another set of tests, the pre-plant incorporated (PPI) activity of compounds of this invention was evaluated on the same species as for the pre-emergence tests described above. In the PPI tests the following procedure, designed to simulate PPI application, was used.
# (§2) A pre-prepared topsoil mixture (described above) was placed in a pot and compacted to a depth of 1.0 to 1.25 cm from the top of the pot. Seeds of each of several monocotyledonous and dicotyledonous annual plant species were placed on top of the soil. A sufficient quantity of soil to cover the seeds and level fill the pot was weighed into an open container. A known amount of the test compound was dissolved or suspended in an organic solvent and applied by spraying to this cover soil. The cover soil was thoroughly mixed to distribute the test compound throughout the cover soil, and was then applied as a cover layer over the seeds. Untreated soil was used as a cover layer for control pots. After treatment the plants were placed in a greenhouse where they received 0.64 cm of overhead irrigation. All subsequent watering consisted of a light overhead mist and/or subirrigation as needed for germination and growth. Tables 9 and 10 below relate to warm season plant species which were placed after pre-emergence treatment in a greenhouse with a 30/21° C. day/night temperature regime. Tables 11 and 12 below relates to cool season plant species placed after pre-emergence treatment in a greenhouse or growth chamber with an 18/13° C. day/night temperature regime. Only the compounds of Examples 1, 6, 8, 11, 13 and 15-20 were included in PPI tests.
# (§3) Approximately 14 days after planting and treating, the plants were observed and herbicidal efficacy recorded as percent inhibition by comparison with untreated plants.
# POLCO (wild buckwheat) [1] = assay: Pre-emergence herbicidal activity, cool season; type: in vivo, Polygonum convolvulus; conditions: lowest tested rate with 80% or greater inhibition; rates 300, 100, 30, 10 g/ha; about 14 days
# Outline: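 Pre-emergence soil-surface spray; rates 300/100/30/10 g/ha; acetone:water 50:50 diluent. Warm-season species (PANMI, DIGSA) grown at 30/21 °C, cool-season species (ALOMY, POLCO) at 18/13 °C. Inhibition scored ~14 d after treatment versus untreated controls → GR80.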
# POLCO (wild buckwheat) [2] = assay: Pre-plant incorporated (PPI) herbicidal activity, cool season; type: in vivo, Polygonum convolvulus; conditions: weed, PPI application
# Method: as §1, §2, §3
# wheat (TRZAW) = assay: Selectivity test, PPI, cool season crop; type: in vivo, Triticum aestivum; conditions: PPI application
# Method: as §2, §3
# (§4) Additional pre-emergence and PPI tests were conducted by the procedures described above, on warm and cool season weed species in the presence of crop species, to assess herbicidal selectivity. Crop species included in warm season tests were corn (Zea mays, ZEAMX), rice (Oryza sativa, ORYSA) and soybean (Glycine max, GLYMX). Crop species included in cool season tests were wheat (Triticum aestivum, TRZAW), barley (Hordeunm vulgare, HORVX) and oilseed rape (Brassica napus, BRSNS).
# (§5) Tables 15 and 16 relate to pre-emergence and PPI tests respectively on warm season species. Table 17 relates to pre-emergence tests on cool season species.
# oilseed rape (BRSNS) = assay: Selectivity test, PPI, cool season crop; type: in vivo, Brassica napus; conditions: PPI application
# Method: as §2, §3, §4, §5
# ALOMY (blackgrass) = assay: Pre-plant incorporated (PPI) herbicidal activity, cool season; type: in vivo, Alopecurus myosuroides; conditions: weed, PPI application
# Method: as §1, §2, §3
# SASKR (russian thistle) = assay: Pre-emergence herbicidal activity, cool season; type: in vivo, Salsola kali; conditions: lowest tested rate with 80% or greater inhibition; rates 300, 100, 30, 10 g/ha; about 14 days
# Outline: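 GR80 values derive from percent inhibition relative to untreated plants, read roughly 14 days after sowing and pre-emergence soil-surface treatment (compound in 50:50 acetone/water; rates typically 10, 30, 100, 300 g/ha). Warm-season weeds grew at 30/21° C day/night, cool-season ones at 18/13° C; an asterisk marks activity without reaching 80% at the highest rate.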
# [3] = system: VERPE (creeping speedwell); assay: Pre-plant incorporated (PPI) herbicidal activity, cool season; type: in vivo, Veronica persicaria; conditions: weed, PPI application
# Method: as §1, §2, §3
# ECHCG (barnyardgrass) = assay: Pre-plant incorporated (PPI) herbicidal activity, warm season; type: in vivo, Echinochloa crus-galli; conditions: PPI application
# Method: as §1, §2, §3
# XANST (cocklebur) = assay: as above; type: in vivo, Xanthium strumarium; conditions: PPI application
# Method: as §1, §2, §3
# PANDI (fall panicum) = assay: as above; type: in vivo, Panicum dichotomiflorum; conditions: PPI application
# Method: as §1, §2, §3
structure (smiles),measurement,setting,value
CCN(CC)C(=O)n1cnc(S(=O)(=O)C(F)(F)SCc2ccccc2)n1 [Example 10],Percent inhibition AMARE,AMARE (redroot pigweed); 10 g/ha,0%
same,Percent inhibition AMARE,AMARE (redroot pigweed); 30 g/ha,0%
same,Percent inhibition AMARE,AMARE (redroot pigweed); 100 g/ha,40%
same,Percent inhibition AMARE,AMARE (redroot pigweed); 300 g/ha,100%
same,Percent inhibition AMARE,AMARE (redroot pigweed); 900 g/ha,100%
same,"Pre-emergence activity GR80, POLCO",POLCO (wild buckwheat) [1],[empty]
same,Percent inhibition POLCO,POLCO (wild buckwheat) [2]; 10 g/ha,0%
same,Percent inhibition POLCO,POLCO (wild buckwheat) [2]; 30 g/ha,0%
same,Percent inhibition POLCO,POLCO (wild buckwheat) [2]; 100 g/ha,60%
same,Percent inhibition POLCO,POLCO (wild buckwheat) [2]; 300 g/ha,80%
same,Percent inhibition POLCO,POLCO (wild buckwheat) [2]; 900 g/ha,95%
same,Percent inhibition TRZAW,wheat (TRZAW); 10 g/ha,0%
same,Percent inhibition TRZAW,wheat (TRZAW); 30 g/ha,0%
same,Percent inhibition TRZAW,wheat (TRZAW); 100 g/ha,0%
same,Percent inhibition TRZAW,wheat (TRZAW); 300 g/ha,10%
same,Percent inhibition TRZAW,wheat (TRZAW); 900 g/ha,20%
same,Percent inhibition BRSNS,oilseed rape (BRSNS); 10 g/ha,0%
same,Percent inhibition BRSNS,oilseed rape (BRSNS); 30 g/ha,0%
same,Percent inhibition BRSNS,oilseed rape (BRSNS); 100 g/ha,0%
same,Percent inhibition BRSNS,oilseed rape (BRSNS); 300 g/ha,50%
same,Percent inhibition BRSNS,oilseed rape (BRSNS); 900 g/ha,95%
same,Percent inhibition ALOMY,ALOMY (blackgrass); 10 g/ha,0%
same,Percent inhibition ALOMY,ALOMY (blackgrass); 30 g/ha,50%
same,Percent inhibition ALOMY,ALOMY (blackgrass); 100 g/ha,100%
same,Percent inhibition ALOMY,ALOMY (blackgrass); 300 g/ha,95%
same,Percent inhibition ALOMY,ALOMY (blackgrass); 900 g/ha,100%
same,"Pre-emergence activity GR80, SASKR",SASKR (russian thistle),100 g/ha
same,Percent inhibition VERPE,[3]; 10 g/ha,70%
same,Percent inhibition VERPE,[3]; 100 g/ha,100%
same,Percent inhibition VERPE,[3]; 300 g/ha,100%
same,Percent inhibition VERPE,[3]; 900 g/ha,100%
same,Percent inhibition ECHCG,ECHCG (barnyardgrass); 10 g/ha,0%
same,Percent inhibition ECHCG,ECHCG (barnyardgrass); 30 g/ha,0%
same,Percent inhibition ECHCG,ECHCG (barnyardgrass); 100 g/ha,50%
same,Percent inhibition ECHCG,ECHCG (barnyardgrass); 300 g/ha,100%
same,Percent inhibition ECHCG,ECHCG (barnyardgrass); 900 g/ha,100%
same,Percent inhibition XANST,XANST (cocklebur); 10 g/ha,0%
same,Percent inhibition XANST,XANST (cocklebur); 30 g/ha,0%
same,Percent inhibition XANST,XANST (cocklebur); 100 g/ha,0%
same,Percent inhibition XANST,XANST (cocklebur); 300 g/ha,0%
same,Percent inhibition XANST,XANST (cocklebur); 900 g/ha,10%
same,Percent inhibition PANDI,PANDI (fall panicum); 10 g/ha,0%
same,Percent inhibition PANDI,PANDI (fall panicum); 30 g/ha,50%
same,Percent inhibition PANDI,PANDI (fall panicum); 100 g/ha,100%
same,Percent inhibition PANDI,PANDI (fall panicum); 300 g/ha,100%
same,Percent inhibition PANDI,PANDI (fall panicum); 900 g/ha,100%
